Data published in article PMC6934184, “Selective DNA-PKcs inhibition extends the therapeutic index of localized radiotherapy and chemotherapy” (The Journal of Clinical Investigation, 2019).

Target: T1, CDK5/p35 (Homo sapiens, UniProt Q00535)
T1 construct: purchased Thermo Fisher Scientific (Life Technologies) SelectScreen
Experiment: SelectScreen Z'LYTE
Assay type: biochemical
How it was run: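 Compound tested in SelectScreen activity assays, Z'LYTE for CSF1R, CDK1/cyclin B and MAP2K6 and Adapta for CAMK1. ATP for CAMK1 was listed as 10, and Km app was used for CSF1R. Results are expressed in percent.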

T1 sequence (Q00535 whole entry): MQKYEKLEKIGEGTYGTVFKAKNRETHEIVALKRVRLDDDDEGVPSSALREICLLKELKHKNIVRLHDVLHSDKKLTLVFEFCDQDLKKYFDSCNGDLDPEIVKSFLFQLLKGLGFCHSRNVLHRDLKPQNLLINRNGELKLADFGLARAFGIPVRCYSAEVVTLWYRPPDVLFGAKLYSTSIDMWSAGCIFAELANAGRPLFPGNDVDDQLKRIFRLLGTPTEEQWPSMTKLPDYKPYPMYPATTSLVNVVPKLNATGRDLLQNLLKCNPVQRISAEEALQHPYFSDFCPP
T1 sequence (Q15078 whole entry partner): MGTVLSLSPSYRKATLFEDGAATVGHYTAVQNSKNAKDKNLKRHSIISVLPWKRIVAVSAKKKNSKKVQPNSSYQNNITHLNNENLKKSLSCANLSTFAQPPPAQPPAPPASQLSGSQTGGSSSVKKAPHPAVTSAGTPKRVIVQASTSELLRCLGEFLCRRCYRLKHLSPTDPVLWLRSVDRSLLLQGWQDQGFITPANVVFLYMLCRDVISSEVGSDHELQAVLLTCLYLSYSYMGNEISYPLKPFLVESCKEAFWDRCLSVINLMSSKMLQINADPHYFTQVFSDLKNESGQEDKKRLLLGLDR

Question: With `CN(C(=O)CN1CCOCC1)c1ccc2sc3c(-c4cccc5c(=O)cc(N6CC7CCC(C6)O7)oc45)cccc3c2c1` [NU5455] as the compound, how does the inhibition at 1 µM read?
Answer: The inhibition at 1 µM was -8.6%.
